Like-named read-outs stand apart in the source and are kept apart here.
Assays:
[1] = test system: PSA-specific and SIINFEKL-specific immunity; assay: PSA- and […]-specific CD8 T cells after PSA-SVN Tag with early antibiotics; assay type: in vivo, C57BL/6 mice; conditions: PSA-SVN Tag IP, spleens day 7
Method: FIGS. 17A-D Results from early time point administration of ampicillin at 2 hours, 4 hours, and 6 hours post-Lm vaccine. % PSA specific CD8 T cells (FIG. 17A), % […] specific CD8 T cells (FIG. 17B), # of PSA specific CD8 cells (FIG. 17C), and # of […] specific CD8 cells (FIG. 17D).
FIGS. 18A-B Splenocytes from early gentamicin treatment at 2 hours, 4 hours, or 6 hours +ampicillin 24 hour chase of LM-PSA-SVN treated mice. % PSA specific CD8 T cells (FIG. 18A) and % […] specific CD8 T cells (FIG. 18B).
An assay was performed to examine the generation of […]-specific and PSA-specific immunity in mice treated with ampicillin or gentamicin/ampicillin and immunized with PSA-SVN Tag. The […]-specific immune response was detected by pentamer staining using the known T cell epitopes for C57BL/6 mice, H-2 Db PSA65-73 ([…]) and H-2 Kb OVA257-264 ([…]).
Prime-Harvest with Ampicillin: On Day 0, all groups were infected with PSA-SVN Tag LM IP, and then ampicillin was administered at 100 mg/kg IP at various time points from hour 2, 4, 6, 24. All Animals (except negative control) were given 1 dose of ampicillin at 24 hours. 7 days after Day 0 infection, mice were sacrificed and spleens were harvested and analyzed for specific T-cell epitopes to H-2 Db PSA65-73 ([…]) and H-2 Kb OVA257-264 ([…]). […]

TPSA23 tumor = TPSA23 tumor regression study, ADXS31-142 with or without ampicillin; assay type: in vivo, C57BL/6 male mice; conditions: DP ADXS31-142 (PSA 1.0) IP, ampicillin 100 mg/kg IP at 4-hr, 6-hr, 24-hr
Method: FIG. 22A-B Results for ADXS31-142 therapy with our without early ampicillin treatment. TC1 tumor regression (FIG. 22A) and % survival (FIG. 22B).
A tumor regression study was initiated in C57BL/6 male mice using TPSA23 prostate cancer cells to assess the therapeutic efficacy of different Lm treatment with or without ampicillin treatment.
Tumor Inoculation: The tumor model used in this study is the TPSA23 tumor model. TPSA23 cells are cultured in complete medium. Complete medium for TPSA23 cells: 430 ml DMEM with Glucose, 45 ml FBS, 25 ml Nu-Serum IV, 5 ml L-Glutamine, 5 ml Na-bicarbonate, 0.005 mg/ml Bovine Insulin—Insulin stock (2.5 mg/ml) is prepared in acidified water (10 ml water+100 ul glacial acetic acid) (Add to the flask while splitting cells—6.4 uL/8 mLs media, 12.8 uL/16 mLs media, 19.2 uL/24 mLs media, etc.), and 10 nM Dehydroisoandrosterone (DHA)—DHA stock (10 mM) is prepared in ethanol. (Add to the flask while splitting cells—140 uL/70 mLs media, 70 uL/35 mLs media, 35 uL/17.5 mLs media, etc.). Two days prior to implanting tumor cells in mice, TPSA23 cells are sub-cultured in complete media. […] Cells were counted and re-suspended at a concentration of 2×10^6 cells/200 ul in PBS/mouse for injection. […] Tumors are measured twice a week until they reach a size of 12 mm in diameter. Once tumors met sacrifice criteria, mice were euthanized and tumors were excised and measured. […]

[2] = 10 mg/mL in sterile H2O, cited from earlier work
TC-1 tumor = TC-1 tumor regression study, ADXS11-001 with or without ampicillin; assay type: in vivo, C57BL/6 female mice; conditions: DP ADXS11-001 (HPV 1.0) IP, ampicillin 100 mg/kg IP at 4-hr, 6-hr, 24-hr
Method: FIG. 20A-B Results for ADXS11-001 therapy with our without early ampicillin treatment. TC1 tumor regression (FIG. 20A) and % survival (FIG. 20B).
A tumor regression study was initiated in C57BL/6 female mice using TC-1 lung epithelial cells to assess the therapeutic efficacy of different Lm treatment with or without ampicillin treatment and whether it alters the tumor microenvironment.
Tumor Inoculation: The tumor model used in this study is the TC-1 tumor model. TC-1 cells are cultured in complete medium. Complete medium for TC-1 cells: 450 ml RPMI 1640, 50 ml 10%FBS, 5 ml NEAA (100 uM), 5 ml L-Glutamine ([…]), and 5 ml Pen/strep (100 U/mL) penicillin+100 ug/mL streptomycin) G418 (400 ug/mL) (added to cells when splitting). Two days prior to implanting tumor cells in mice, TC-1 cells were sub-cultured in complete media. On the day of the experiment (Day 0), cells were trypsinized and washed twice with media. Cells were counted and re-suspended at a concentration of 1×10^5 cells/200 ul in PBS/mouse for injection. Tumor cells were injected subcutaneously in the right flank of each mouse. Tumors were measured twice a week until they reached a size of 12 mm in diameter. Once tumors met sacrifice criteria, mice were euthanized and tumors were excised and measured.
Vaccine/Ampicillin Treatment: On Day 6, when tumors are ˜5mm in size; vaccines and treatments began. […]

| Compound | PSA specific and SIINFEKL specific CD8 T cells, difference between groups ([1]; ampicillin 100 mg/kg IP at 2, 4, 6 hours plus 24 hours) | survival, difference between Lm treatment groups with or without ampicillin (TPSA23 tumor) | tumor regression, difference between Lm treatment groups with or without ampicillin (TPSA23 tumor) | solution stability [2] [days] | survival, difference between Lm treatment groups with or without ampicillin (TC-1 tumor) | tumor regression, difference between Lm treatment groups with or without ampicillin (TC-1 tumor) | PSA specific and SIINFEKL specific CD8 T cells, difference between groups ([1]; gentamicin 5 mg/kg IP at 2, 4, 6 hours plus ampicillin 24 hour chase) | solution stability ([2]; 2-8 C) | solution stability ([2]; at 37 C) [days] |
| --- | --- | --- | --- | --- | --- | --- | --- | --- | --- |
| CC1(C)S[C@@H]2[C@H](NC(=O)[C@H](N)c3ccccc3)C(=O)N2[C@H]1C(=O)O [ampicillin] | No significant difference | No significant difference | No significant difference | 3 | No significant difference | No significant difference | – | – | – |
| gentamicin | – | – | – | – | – | – | No significant difference | months | 5 |

Reference: patent US20180360940A1, “LISTERIA-BASED IMMUNOTHERAPY AND METHODS OF USE THEREOF” (priority 2015, published 2018)
